Results taken from PubChem BioAssay AID2060512 (Molecular Pharmacology Branch, DTP, NCI, 2025).
“And” between values parts separate entries of the source, which are not always exact repeats. Identical values can stand only once. Values belong to the molecule of their own block, whether it stands above or below them.

Tested on: 186277-243-T-J2-PDC complex spheroid viability
Assay: Anticancer human tumor 186277-243-T-J2-PDC patient-derived colon adenocarcinoma cell line growth inhibition [GQUAD]
Details: for viability, T/C: stronger effect = lower value
From the text: DNA G-quadruplex Stabilizer Agents in Combinations in Complex Spheroids
A high-throughput screen of multi-cell type tumor spheroids was designed to identify active combinations of DNA G-quadruplex stabilizer agents and targeted small molecules. Complex spheroids include a stromal component modeled by human endothelial cells (HUVEC) and fibroblasts modeled by human mesenchymal stem cells (MSCs). The concentration ranges selected for each drug and investigational agent were based upon clinically achievable concentrations if the clinical Cmax of the agent was known.
Compounds. The drugs and investigational agents: pidnarulex (CX-5461; NSC782164), APTO-253 (NSC789042), BRACO-19 (NSC847499), peposertib (NSC802822), ceralasertib (NSC780249), elimusertib (NSC800525), camonsertib (NSC841442), AZD-1390 (NSC803789), olaparib (NSC753686), talazoparib (NSC767125), ART-558 (NSC835418), sotorasib (NSC818433), MRTX-1133 (NSC836407), SN-38 (NSC673596), topotecan (NSC609699), etoposide (NSC141540), doxorubicin (NSC123127), gemcitabine (NSC613327), 5-fluorouracil (NSC19893), paclitaxel (NSC125973), vemurafenib (NSC761431), panobinostat (NSC761190), R-306465 (JNJ-16241199; NSC773264), adavosertib (NSC754352), TP-3654 (NSC805149), carboplatin (NSC241240), KSQ-4279 (NSC840948), and staurosporine (NSC755774) were obtained from the National Cancer Institute (NCI) Developmental Therapeutics Program Chemical Repository (34). The FDA-approved anticancer drug set is available from the NCI Developmental Therapeutics Program. […] The stock solutions were prepared in dimethyl sulfoxide (DMSO, Sigma-Aldrich, St. Louis, MO, cat. D2650) at 800-fold the tested concentration and stored at -70 degrees C prior to their use. All drugs and investigational agents were tested over a range starting from a high concentration at or near the clinical Cmax and decreasing in half-log increments. If the clinical Cmax for an agent had not been determined, the highest concentration tested was 10 microM.
2.3 Cell Culture. All cells were maintained in an incubator at 37 degrees C and 5% CO2 with 95% humidity. The PDC lines were cultured according to standard operating procedures established by the NCI PDMR. All PDCs were thawed and cultured in Matrigel-coated flasks prepared with a working solution of 1X Ham's F-12 nutrient mix, without supplementation (Invitrogen, cat. 11765054), 100 U/mL penicillin-streptomycin (Invitrogen, cat. 15140122), and 2.5% Matrigel (Corning Inc., cat. 354248) for the first three passages. The 857933-349-R-J2-PDC line was cultured in 6C/Colon 1B media, which includes advanced DMEM/F-12 (Thermo Fisher Scientific, cat. 12634028), 10 mM HEPES (Thermo Fisher Scientific, cat. 15630080), 1X GlutaMAX supplement (Thermo Fisher Scientific, cat. 35050061), 0.1 mg/mL primocin (InvivoGen, cat. ant-pm-2), 10% defined fetal bovine serum, heat inactivated (HyClone Laboratories Inc., cat. SH30070.03HI), 50% L-WRN conditioned media (ATCC, cat. CRL-3276), 1.25 mM N-Acetyl-L-cysteine (Sigma-Aldrich, cat. A9165), 10 mM nicotinamide (Sigma-Aldrich, cat. N0636), 1X B-27 supplement (Thermo Fisher Scientific, cat. 17504044), 1X N-2 supplement (Thermo Fisher Scientific, cat. 17502048), 10 microM Y-27632 dihydrochloride (Tocris Bioscience, cat. 1254), and 50 ng/mL human EGF recombinant protein (Thermo Fisher Scientific, cat. PHG0311). The 485176-168-R4-J1-PDC line was cultured in Panc media, which includes all 6C/Colon 1B media components plus 100 ng/mL human FGF-10 (Thermo Fisher Scientific, cat. 100-26), 500 nM SB-431542 (Selleckchem, cat. S1067), and gastrin (Tocris, cat. 3006).
[…]
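Also: spheroids exposed to drugs for 7 days.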
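For viability, T/C in this document: 100% = DMSO vehicle control viability.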

IC50 (curve of compound): < 31.6 nM
Structure (SMILES): Nc1ccn(C2OC(CO)C(O)C2(F)F)c(=O)n1 (centres undefined)
viability, T/C (compound 0.0316 µM): 17% and 8.09% and 31%
viability, T/C (compound 0.1 µM): 11.1% and 8.48% and 13.3%
viability, T/C (compound 0.316 µM): 11.3% and 9.27% and 10.2%
viability, T/C (compound 1 µM): 11.5% and 8.56% and 11.1%
viability, T/C (compound 3.16 µM): 12.8% and 8.21% and 8.72%
viability, T/C (compound 10 µM): 10.8% and 8.32% and 10.6%

IC50 (curve of compound): > 316 nM and 104 nM and 230 nM
Structure (SMILES): CC[C@@]1(O)C(=O)OCc2c1cc1n(c2=O)Cc2cc3c(CN(C)C)c(O)ccc3nc2-1
viability, T/C (compound 0.000999 µM): 105% and 97.5% and 100%
viability, T/C (compound 0.00316 µM): 97.5% and 99.2% and 96.2%
viability, T/C (compound 0.00999 µM): 97.4% and 111% and 103%
viability, T/C (compound 0.0316 µM): 87.6% and 77.7% and 96.6%
viability, T/C (compound 0.0999 µM): 72.4% and 55.3% and 59.9%
viability, T/C (compound 0.316 µM): 50.6% and 42.9% and 46.2%

IC50 (compound alone, run of 04/16/2024): 2.36 µM [middle of 12 runs]
Structure (SMILES): Cc1cnc(CNC(=O)c2c(=O)c3ccc(N4CCCN(C)CC4)nc3n3c2sc2ccccc23)cn1
viability, T/C (compound 0.0316 µM): 97.7% [middle of 12 runs]
viability, T/C (compound 0.316 µM): 76.8% [middle of 12 runs]
viability, T/C (compound 1 µM): 61.5% [middle of 12 runs]
viability, T/C (compound 3.16 µM): 43.7% [middle of 12 runs]
viability, T/C (compound 10 µM): 39.7% [middle of 12 runs]

IC50 (compound alone, run of 04/22/2024): > 10000 nM
Structure (SMILES): CN(C)c1ccc(Nc2c3ccc(NC(=O)CCN4CCCC4)cc3nc3cc(NC(=O)CCN4CCCC4)ccc23)cc1
viability, T/C (compound 0.1 µM): 97.8% [middle of 12 runs]
viability, T/C (compound 0.316 µM): 101% [middle of 12 runs]
viability, T/C (compound 1 µM): 101% [middle of 12 runs]
viability, T/C (compound 10 µM): 99.7% [middle of 12 runs]

IC50 (curve of compound): 6250 nM and 3040 nM and > 10000 nM
Structure (SMILES): CC(C)(O)C1CCC(Nc2ccc3ncc(-c4cccc(C(F)(F)F)c4)n3n2)CC1 (centres undefined)
viability, T/C (compound 0.0316 µM): 82.3% and 96.5% and 103%
viability, T/C (compound 0.1 µM): 106% and 97.7% and 92.2%
viability, T/C (compound 0.316 µM): 101% and 99.8% and 99.6%
viability, T/C (compound 1 µM): 83.7% and 85.5% and 105%
viability, T/C (compound 3.16 µM): 55.3% and 49% and 56.7%
viability, T/C (compound 10 µM): 46.4% and 46% and 50%

Structure (SMILES): CC(=O)O[C@H]1C(=O)[C@@]2(C)[C@H]([C@H](OC(=O)c3ccccc3)[C@]3(O)C[C@H](OC(=O)[C@H](O)[C@@H](NC(=O)c4ccccc4)c4ccccc4)C(C)=C1C3(C)C)[C@]1(OC(C)=O)CO[C@@H]1C[C@@H]2O + CN(C)c1ccc(Nc2c3ccc(NC(=O)CCN4CCCC4)cc3nc3cc(NC(=O)CCN4CCCC4)ccc23)cc1
IC50 (curve of first compound, second compound 0.0316 µM): < 31.6 nM
IC50 (curve of first compound, second compound 0.1 µM): < 31.6 nM
IC50 (curve of first compound, second compound 0.316 µM): < 31.6 nM
IC50 (curve of first compound, second compound 1 µM): < 31.6 nM
IC50 (curve of first compound, second compound 3.16 µM): < 31.6 nM
IC50 (curve of first compound, second compound 10 µM): < 31.6 nM
viability, T/C (second compound 0.0316 µM, first compound 0.0316 µM): 19.8%
viability, T/C (second compound 0.0316 µM, first compound 0.1 µM): 6.1%
viability, T/C (second compound 0.0316 µM, first compound 0.316 µM): 5.38%
viability, T/C (second compound 0.0316 µM, first compound 1 µM): 3.55%
viability, T/C (second compound 0.0316 µM, first compound 3.16 µM): 3.54%
viability, T/C (second compound 0.0316 µM, first compound 10 µM): 3.9%
viability, T/C (second compound 0.1 µM, first compound 0.0316 µM): 18.9%
viability, T/C (second compound 0.1 µM, first compound 0.1 µM): 7.57%
viability, T/C (second compound 0.1 µM, first compound 0.316 µM): 4.53%
viability, T/C (second compound 0.1 µM, first compound 1 µM): 3.24%
viability, T/C (second compound 0.1 µM, first compound 3.16 µM): 4.81%
viability, T/C (second compound 0.1 µM, first compound 10 µM): 4.04%
viability, T/C (second compound 0.316 µM, first compound 0.0316 µM): 20.1%
viability, T/C (second compound 0.316 µM, first compound 0.1 µM): 7.12%
viability, T/C (second compound 0.316 µM, first compound 0.316 µM): 4.2%
viability, T/C (second compound 0.316 µM, first compound 1 µM): 4.04%
viability, T/C (second compound 0.316 µM, first compound 3.16 µM): 4.15%
viability, T/C (second compound 0.316 µM, first compound 10 µM): 3.98%
viability, T/C (second compound 1 µM, first compound 0.0316 µM): 11.8%
viability, T/C (second compound 1 µM, first compound 0.1 µM): 7.8%
viability, T/C (second compound 1 µM, first compound 0.316 µM): 5.59%
viability, T/C (second compound 1 µM, first compound 1 µM): 3.93%
viability, T/C (second compound 1 µM, first compound 3.16 µM): 4.16%
viability, T/C (second compound 1 µM, first compound 10 µM): 4.31%
viability, T/C (second compound 3.16 µM, first compound 0.0316 µM): 19.9%
viability, T/C (second compound 3.16 µM, first compound 0.1 µM): 6.16%
viability, T/C (second compound 3.16 µM, first compound 0.316 µM): 3.9%
viability, T/C (second compound 3.16 µM, first compound 1 µM): 4.93%
viability, T/C (second compound 3.16 µM, first compound 3.16 µM): 4.08%
viability, T/C (second compound 3.16 µM, first compound 10 µM): 4.24%
viability, T/C (second compound 10 µM, first compound 0.0316 µM): 19.5%
viability, T/C (second compound 10 µM, first compound 0.1 µM): 6.64%
viability, T/C (second compound 10 µM, first compound 0.316 µM): 3.63%
viability, T/C (second compound 10 µM, first compound 1 µM): 3.44%
viability, T/C (second compound 10 µM, first compound 3.16 µM): 2.96%
viability, T/C (second compound 10 µM, first compound 10 µM): 2.41%
